The source of these data is US20230218654A1, “COMPOSITIONS AND METHODS FOR TREATING HYPERGLYCEMIA IN TYPE-2 DIABETES” (The Board of Regents of the university of Oklahoma, priority 2020, published 2023).

In one test the test system is AML12 mouse hepatocytes. Description: Western blot of insulin signaling and cullin neddylation in AML12 cells. The class given is cell-based. The procedure:
MLN4924 increases IRS protein and AKT activation in the presence of insulin. Mouse AML 12 hepatocytes were serum starved for 16 h. Cells were then pre-treated with MLN4924 for 1 h followed by 100 nM insulin stimulation for 4 h. Western blot was then performed to evaluate insulin signaling activation.
AML 12 cells were serum starved for 16 h. Cells were then pre-treated with 500 nM MLN4924 or vehicle (DMSO) for 1 h, followed by 100 µg/ml cycloheximide (CHX) and 100 nM insulin treatment.
AML12 cells were serum starved for 16 h. Cells were then pre-treated with 500 nM MLN4924 for 1 h followed by 100 nM insulin stimulation in time course.
FIG. 18A is a Western blot analysis showing that MLN4924 enhances hepatocyte insulin responsiveness (signaling) by delaying feedback IRS degradation. AML12 cells were serum starved for 16 h. Cells were then pre-treated with MLN4924 for 1 h followed by insulin stimulation for 4 h.
FIG. 18D is a Western blot analysis of insulin signaling in AML12 cells serum starved for 16 h, then pre-treated with 500 nM MLN4924 for 1 h followed by 100 nM insulin stimulation in time course.
FIG. 18E is a Western blot analysis of AML12 cells serum starved for 16 h then pre-treated with 500 nM MLN4924 or vehicle (DMSO) for 1 h, followed by 100 µg/ml cycloheximide (CHX) and 100 nM insulin treatment. Cells were collected at the indicated time for Western blotting.
FIG. 18F is a Western blot analysis of insulin signaling in AML12 cells serum starved for 16 h then pre-treated with 100 nM rapamycin and 500 nM MLN4924 as indicated for 1 h followed by additional 2 h incubation in the presence or absence of 100 nM insulin. Blots are representative of 2-4 independent experiments.
FIG. 20 is a Western blot analysis showing that MLN4924 enhances hepatocyte insulin responsiveness in cells treated with wortmannin by delaying feedback IRS degradation (related to FIG. 18A). AML12 cells were serum starved for 16 h then pre-treated with 1 µM wortmannin (Wort) and 500 nM MLN4924 as indicated for 1 h followed by additional 2 h incubation in the presence or absence of 100 nM insulin. Blots are representative of 2 independent experiments.
FIG. 21 is a Western blot analysis showing that MLN4924 enhances hepatocyte insulin responsiveness in cells treated with Torin 1 by delaying feedback IRS degradation (related to FIG. 18A). AML12 cells were serum starved for 16 h then pre-treated with 250 nM Torin1 and 500 nM MLN4924 as indicated for 1 h followed by additional 2 h incubation in the presence or absence of 100 nM insulin. Blots are representative of 2 independent experiments.
(§1) MLN4924 and TAS4464 were purchased from MedChemExpress (MCE, Monmouth Junction, NJ). For cell treatment, MLN4924 and TAS4464 were dissolved in DMSO. Cells were serum starved overnight and then treated with MLN4924, TAS4464 and/or insulin as indicated. For injection in mice, MLN4924 and TAS4464 were first dissolved in DMSO, which was further suspended in 10% (2-hydroxypropyl)-β-cyclodextrin (Sigma, St. Louis, MO). The final solution contains 1% DMSO. The subcutaneous injection volume is 200 µl/mouse.
Protein lysates were prepared in RIPA buffer containing 1% SDS and protease inhibitors on ice for 1 h followed by brief sonication. After centrifugation, supernatant was used for SDS-PAGE and immunoblotting.
AML12 cells were a generous gift from Dr. Yanqiao Zhang (Northeast Ohio Medical University). AML12 cells were cultured in DMEM medium supplemented with a mixture of insulin-transferrin-selenium (#41400-045, ThermoFisher, Waltham, MA). For experiments, cells were cultured in serum free medium overnight before various treatments were initiated. The siGENOME SMARTpool siRNA and siControl were purchased from Dharmacon, Inc. (Lafayette, CO). The siRNA was transfected with Lipofectamine RNAiMAX reagent in a final concentration of 25 nM recommended by the manufacturer. […]
Background: A western blot detects proteins with antibodies after separation by electrophoresis.

The test system of test [1] is insulin resistant and obese male C57BL/6J mice. Description: Acute TAS4464 treatment of obese, insulin resistant WD-fed mice. It counts as in vivo. The conditions noted are these: WD 8 weeks. The method, then: Mice were fed WD for 8 weeks to render them insulin resistant and obese. Mice were then treated with 45 mg/kg TAS4464 or vehicle once at 5 pm on day 1 and once at 9 am on day 2. Body weight and blood glucose were measured at 3 pm on day 2.
Mice were fed WD for 8 weeks, after which the mice were injected with vehicle or 45 mg/kg TAS4464 subcutaneously at 5 pm on day 1 and 9 am on day 2. Mice were fasted from 9 am to 3 pm on day 2 and blood glucose was measured. Results are expressed as mean ± SEM. […]. “*”, p < 0.05, vs. Vehicle.
as §1
Treatment of obese mice with TASS4464 reduced the blood glucose to ~100 mg/dl.

Another test has as its system male C57BL6/J mice. Briefly: Plasma/serum insulin and c-peptide after acute neddylation inhibitor treatment. As to conditions: 6 h fast. The class given is in vivo. The method, then:
Male C57BL6/J mice on chow diet were treated with 45 mg/kg TAS4464 via subcutaneous injection at 9 am. Mice were then fasted for 6 hours and serum insulin was measured. Blood samples were collected at 0 min and 120 min and used for insulin measurement (n=4). Left-hand bars are controls. Right-hand bars are TAS4464 treatments.
Male C57BL6/J mice on Western diet were treated with 15 mg/kg TAS4464 via subcutaneous injection at 9 am. Mice were then fasted for 6 hours and serum c-peptide were measured (n=5).
Male C57BL6/J mice on chow diet were treated with 60 mg/kg MLN4924 via subcutaneous injection at 9 am. Mice were then fasted for 6 hours and serum c-peptide were measured (n=8)
Aspartate aminotransferase (AST) and alanine aminotransferase (ALT) assay kits were purchased from Pointe Scientific (Canton, MI). Free fatty acid assay kit was purchased from Biovision Inc. (Milpitas, CA). Insulin ELISA kit was purchased from Crystal Chem Inc. (Elk Grove Village, IL).
A hyperinsulinemic-euglycemic clamp study was conducted in which obese mice were treated with vehicle or MLN4924.

[2] abbreviates: 1 µM wortmannin or 250 nM Torin1, 100 nM insulin.

For the compound `CCC(=O)N1CCN(c2ccc(-n3c(=O)ccc4cnc5ccc(-c6cnc7ccccc7c6)cc5c43)cc2C(F)(F)F)CC1` [Torin 1], in the test on AML12 mouse hepatocytes (setting [2]), the “downstream AKT activation” value is reported as “decreased downstream AKT activation” and the “downstream mTOR activation” value is reported as “blocked downstream mTOR activation”.
In the case of `CCOc1cccc(F)c1C#Cc1cn([C@@H]2O[C@H](CNS(N)(=O)=O)[C@@H](O)[C@H]2O)c2ncnc(N)c12` [TAS4464, 7H-Pyrrolo[2,3-d]pyrimidin-4-amine, 7-[5-[(aminosulfonyl)amino]-5-deoxy-beta-D-ribofuranosyl]-5-[2-(2-ethoxy-6-fluorophenyl)ethynyl]-], the “blood glucose after 6-hour fast” value in test [1] (45 mg/kg SQ at 5 pm day 1 and 9 am day 2) was ~ 100 mg/dl. Further, in test [1] (45 mg/kg SQ twice, 6 h fast), the “blood glucose (in words)” value is reported as “acutely reduced blood glucose”. The serum c-peptide concentration entry in the test with male C57BL6/J mice (Western diet, 15 mg/kg SQ at 9 am) is “elevated serum c-peptide concentration”. Also, the serum insulin concentration result with male C57BL6/J mice (chow diet, 45 mg/kg SQ at 9 am) is on record as “increases serum insulin concentration”. Also, in the test with AML12 mouse hepatocytes (TAS4464 increasing doses, 5 h), the IRS protein result is on record as “increased IRS protein”, the “neddylated cullin 1” value was “significantly inhibited” and the total neddylated cullins result is reported as “significantly inhibited”.
